According to patent US9695155B2, “Herbicidal substituted pyrimidinyloxy benzene compounds” (E. I. DU PONT DE NEMOURS AND COMPANY, priority 2013, dated 2017):

Tests used:
[1] = tested on: surinam grass; assay: Test E preemergence; type: in vivo, Brachiaria decumbens; settings: for Surinam Grass plant response rating: scale 0 to 100 (0 no effect, 100 complete control); for Plant response rating, Surinam Grass: scale 0 to 100, 0 no effect, 100 complete control
Summary of the method: (§1)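 Test chemicals formulated in a non-phytotoxic solvent mixture containing a surfactant were applied preemergence to seeds in silt loam soil or postemergence to plants at the 1- to 4-leaf stage in potting mix. After 14 to 21 days in a greenhouse, injury was visually rated against controls on a 0-100 scale (0 = no effect, 100 = complete control).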

[2] = tested on: ducksalad; assay: Test C flooded paddy test; type: in vivo, Heteranthera limosa; settings: Flood, scale 0 to 100 (0 no effect, 100 complete control), 13 to 15 days
Summary of the method: (§2)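 In-water treatment: compound dosed into 3 cm flood over soil, water level unchanged throughout. Controls run alongside; visual assessment at day 13–15.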

[3] = tested on: lambsquarters; assay: Test E preemergence; type: in vivo, Chenopodium album; settings: for Lambsquarters plant response rating: scale 0 to 100 (0 no effect, 100 complete control); for Plant response rating, Lambsquarters: scale 0 to 100, 0 no effect, 100 complete control
Summary of the method: as §1

[4] = tested on: dayflower; assay: Test E preemergence; type: in vivo, Commelina virginica; settings: for Dayflower, VA plant response rating: scale 0 to 100 (0 no effect, 100 complete control); for Plant response rating, Dayflower, VA: scale 0 to 100, 0 no effect, 100 complete control
Summary of the method: as §1

[5] = tested on: ragweed; assay: Test E preemergence; type: in vivo, Ambrosia elatior; settings: for Ragweed plant response rating: scale 0 to 100 (0 no effect, 100 complete control); for Plant response rating, Ragweed: scale 0 to 100, 0 no effect, 100 complete control
Summary of the method: as §1

[6] = tested on: fall panicum; assay: Test E preemergence; type: in vivo, Panicum dichotomiflorum; settings: for Panicum, Fall plant response rating: scale 0 to 100 (0 no effect, 100 complete control); for Plant response rating, Panicum, Fall: scale 0 to 100, 0 no effect, 100 complete control
Summary of the method: as §1

[7] = tested on: hairy beggarticks; assay: Test E preemergence; type: in vivo, Bidens pilosa; settings: for Beggarticks plant response rating: scale 0 to 100 (0 no effect, 100 complete control); for Plant response rating, Beggarticks: scale 0 to 100, 0 no effect, 100 complete control
Summary of the method: as §1

[8] = tested on: barnyardgrass; assay: Test C flooded paddy test; type: in vivo, Echinochloa crus-galli; settings: Flood, scale 0 to 100 (0 no effect, 100 complete control), 13 to 15 days
Summary of the method: as §2

[9] = tested on: goosegrass; assay: Test E preemergence; type: in vivo, Eleusine indica; settings: for Goosegrass plant response rating: scale 0 to 100 (0 no effect, 100 complete control); for Plant response rating, Goosegrass: scale 0 to 100, 0 no effect, 100 complete control
Summary of the method: as §1

[10] = tested on: large (Lg) crabgrass; assay: Test E preemergence; type: in vivo, Digitaria sanguinalis; settings: for Crabgrass, Large plant response rating: scale 0 to 100 (0 no effect, 100 complete control); for Plant response rating, Crabgrass, Large: scale 0 to 100, 0 no effect, 100 complete control
Summary of the method: as §1

[11] = tested on: wild poinsettia; assay: Test E preemergence; type: in vivo, Euphorbia heterophylla; settings: for Poinsettia, Wild plant response rating: scale 0 to 100 (0 no effect, 100 complete control); for Plant response rating, Poinsettia, Wild: scale 0 to 100, 0 no effect, 100 complete control
Summary of the method: as §1

[12] = tested on: barnyardgrass; assay: Test E preemergence; type: in vivo, Echinochloa crus-galli; settings: for Barnyardgrass plant response rating: scale 0 to 100 (0 no effect, 100 complete control); for Plant response rating, Barnyardgrass: scale 0 to 100, 0 no effect, 100 complete control
Summary of the method: as §1

[13] = tested on: johnsongrass; assay: Test E preemergence; type: in vivo, Sorghum halepense; settings: for Johnsongrass plant response rating: scale 0 to 100 (0 no effect, 100 complete control)
Summary of the method: as §1

With FC(F)(F)c1cnn(-c2ccccc2Oc2ncc(Br)cn2)c1 [Compound 18, 5-bromo-2-[2-[4-(trifluoromethyl)-1H-pyrazol-1-yl]phenoxy]pyrimidine] the “Surinam Grass plant response rating” value ([1]; 16 g ai/ha) was 0, the “Surinam Grass plant response rating” value ([1]; 31 g ai/ha) was 0 and the “Surinam Grass plant response rating” value ([1]; 62 g ai/ha) was 0. The “Plant response rating, Surinam Grass” value ([1]; 125 g ai/ha) was 0, the “Plant response rating, Surinam Grass” value ([1]; 250 g ai/ha) was 20 and the “Plant response rating, Ducksalad” value ([2]; 31 g ai/ha) was 80. For the same molecule, the “Plant response rating, Ducksalad” value ([2]; 62 g ai/ha) was 80, the “Plant response rating, Ducksalad” value ([2]; 125 g ai/ha) was 85 and the “Plant response rating, Ducksalad” value ([2]; 250 g ai/ha) was 90. The “Lambsquarters plant response rating” value ([3]; 16 g ai/ha) was 80, the “Lambsquarters plant response rating” value ([3]; 31 g ai/ha) was 90 and the “Lambsquarters plant response rating” value ([3]; 62 g ai/ha) was 98. For the same molecule, the “Plant response rating, Lambsquarters” value ([3]; 125 g ai/ha) was 98, the “Plant response rating, Lambsquarters” value ([3]; 250 g ai/ha) was 98 and the “Dayflower, VA plant response rating” value ([4]; 16 g ai/ha) was 0. For the same molecule, the “Dayflower, VA plant response rating” value ([4]; 31 g ai/ha) was 0, the “Dayflower, VA plant response rating” value ([4]; 62 g ai/ha) was 35 and the “Plant response rating, Dayflower, VA” value ([4]; 125 g ai/ha) was 95. For the same molecule, the “Plant response rating, Dayflower, VA” value ([4]; 250 g ai/ha) was 98, the “Ragweed plant response rating” value ([5]; 16 g ai/ha) was 0 and the “Ragweed plant response rating” value ([5]; 31 g ai/ha) was 0. The “Ragweed plant response rating” value ([5]; 62 g ai/ha) was 0, the “Plant response rating, Ragweed” value ([5]; 125 g ai/ha) was 0 and the “Plant response rating, Ragweed” value ([5]; 250 g ai/ha) was 0. The “Panicum, Fall plant response rating” value ([6]; 16 g ai/ha) was 0, the “Panicum, Fall plant response rating” value ([6]; 31 g ai/ha) was 50 and the “Panicum, Fall plant response rating” value ([6]; 62 g ai/ha) was 70. The “Plant response rating, Panicum, Fall” value ([6]; 125 g ai/ha) was 100, the “Plant response rating, Panicum, Fall” value ([6]; 250 g ai/ha) was 100 and the “Beggarticks plant response rating” value ([7]; 16 g ai/ha, preemergence) was 0. For the same molecule, the “Beggarticks plant response rating” value ([7]; 31 g ai/ha, preemergence) was 0, the “Plant response rating, Beggarticks” value ([7]; Preemergence, 62 g ai/ha) was 0 and the “Plant response rating, Beggarticks” value ([7]; preemergence, 125 g ai/ha) was 0. For the same molecule, the “Plant response rating, Beggarticks” value ([7]; preemergence, 250 g ai/ha) was 0, the “Plant response rating, Barnyardgrass” value ([8]; 31 g ai/ha) was 0 and the “Plant response rating, Barnyardgrass” value ([8]; 62 g ai/ha) was 0. The “Plant response rating, Barnyardgrass” value ([8]; 125 g ai/ha) was 10, the “Plant response rating, Barnyardgrass” value ([8]; 250 g ai/ha) was 20 and the “Goosegrass plant response rating” value ([9]; 16 g ai/ha) was 0. For the same molecule, the “Goosegrass plant response rating” value ([9]; 31 g ai/ha) was 0, the “Goosegrass plant response rating” value ([9]; 62 g ai/ha) was 30 and the “Plant response rating, Goosegrass” value ([9]; 125 g ai/ha) was 90. For the same molecule, the “Plant response rating, Goosegrass” value ([9]; 250 g ai/ha) was 98, the “Crabgrass, Large plant response rating” value ([10]; 16 g ai/ha) was 0 and the “Crabgrass, Large plant response rating” value ([10]; 31 g ai/ha) was 0. For the same molecule, the “Crabgrass, Large plant response rating” value ([10]; 62 g ai/ha) was 40, the “Plant response rating, Crabgrass, Large” value ([10]; 125 g ai/ha) was 100 and the “Plant response rating, Crabgrass, Large” value ([10]; 250 g ai/ha) was 100. The “Poinsettia, Wild plant response rating” value ([11]; 16 g ai/ha) was 0, the “Poinsettia, Wild plant response rating” value ([11]; 31 g ai/ha) was 0 and the “Poinsettia, Wild plant response rating” value ([11]; 62 g ai/ha) was 0. The “Plant response rating, Poinsettia, Wild” value ([11]; 125 g ai/ha) was 0, the “Plant response rating, Poinsettia, Wild” value ([11]; 250 g ai/ha) was 50 and the “Barnyardgrass plant response rating” value ([12]; 16 g ai/ha, preemergence) was 0. For the same molecule, the “Barnyardgrass plant response rating” value ([12]; 31 g ai/ha, preemergence) was 0, the “Plant response rating, Barnyardgrass” value ([12]; Preemergence, 62 g ai/ha) was 0 and the “Plant response rating, Barnyardgrass” value ([12]; preemergence, 125 g ai/ha) was 5. The “Plant response rating, Barnyardgrass” value ([12]; preemergence, 250 g ai/ha) was 20, the “Johnsongrass plant response rating” value ([13]; 16 g ai/ha) was 0 and the “Johnsongrass plant response rating” value ([13]; 31 g ai/ha) was 0. The “Johnsongrass plant response rating” value ([13]; 62 g ai/ha) was 0 and the “Plant response rating, Johnsongrass” value ([13]; 125 g ai/ha, scale 0 to 100, 0 no effect, 100 complete control) was 80.
